# Results: patent US20230365639A1, “DEFENSIN FRAGMENT DERIVED LIPOPEPTIDES FOR TREATMENT OF DRUG-RESISTANT MICROORGANISMS” (priority 2020, published 2023)
# Legend:
# red blood cell = assay: Hemolysis assay; format: cell-based
# Protocol: (§1) Methods: Cellular toxicity was determined by Lactate dehydrogenase concentration and WST-1 cell proliferation assay as well as hemolysis assay.
# [1] = test system: bacteria from the ESKAPE panel; format: cell-based; conditions: broth microdilution, 1.17-150 μM peptide, 2 hours
# Protocol: Methods: Broth microdilution assay. Log-phase bacteria were collected by centrifugation (2500 rpm, 10 min, 4° C.), washed twice with 10 mM sodium phosphate buffer containing 1% (w/v) TSB and the optical density at 600 nm was adjusted to 0.1. Approximately 5×10^5 CFU/ml bacteria were incubated with serial peptide concentrations (1.17-150 μM) in a final volume of 100 μl in 10 mM sodium phosphate buffer containing 1% (w/v) TSB for 2 hours at 37° C. After incubation, 100 μl of 6% TSB (w/v) was added and absorbance was measured at 600 nm (Tecan, Switzerland) and monitored for 18 hours. Afterwards, 100 μl per well was plated on LB agar to determine the number of viable bacteria microbiologically. Bactericidal activity was expressed as the LC99.9, the lowest concentration that killed ≥99.9% of bacteria.
# [2] = Cellular toxicity, lactate dehydrogenase (LDH) assay; format: cell-based
# Protocol: as §1
# [3] = Cellular toxicity, WST-1 cell proliferation assay; format: cell-based
# Protocol: as §1
# S. Typhimurium = assay: Acute gastrointestinal infection caused by S. Typhimurium; format: in vivo, mice
# Protocol: Methods: Analysis of bacterial loads in feces. Fresh fecal samples were collected and weighted. Samples were homogenized in 1 ml LB media by bead-beating with 1 mm zirconia/silica beads twice for 25 s using a Mini-Beadbeater-96 (BioSpec). To determine CFUs, dilutions of homogenized samples were plated on LB plates with 50 μg/ml kanamycin. Analysis of bacterial loads in intestinal content and systemic organs. All mice were euthanized by asphyxiation with CO2 at indicated time points. Intestinal tissues (small intestine, cecum, colon) were removed aseptically. To collect intestinal content, organs were flushed with PBS. Organs were opened longitudinally, cleaned thoroughly with PBS and weighted. Organs and content were homogenized in PBS using a Polytron homogenizer ([…]). Dilutions of homogenized samples were plated on LB plates containing 50 μg/ml kanamycin to determine CFUs. For S. Typhimurium infection experiments, age- and sex-matched mice between 10 and 14 weeks of age were used. Both-female and male mice were used in experiments. Water and food were withdrawn for 4 hours before mice were treated with 20 mg/mouse of streptomycin by oral gavage. Afterwards, mice were supplied with water and food ad libitum. 20 hours after streptomycin treatment, water and food were withdrawn again, 4 hours before the mice were orally infected with 10^5 CFU of S. Typhimurium in 200 μl PBS. […]
# ypuA promoter = ypuA promoter luciferase reporter gene assay; format: cell-based, Bacillus subitilis 1S34
# Protocol: A specific bacterial reporter strain with the genetic background of Bacillus subitilis 1S34, carrying the promoter of the ypuA gene, fused to the firefly luciferase reporter gene, was used to identify cell envelope-related damage caused by treatment with antimicrobial compounds. Bacteria were cultured to an OD600 of 0.9 in LB broth with 5 μg/ml erythromycin at 37° C. and diluted to an OD600 of 0.02. Serial peptide dilutions (0.15-150 μM) were prepared in a microtiter plate and incubated with the adjusted bacterial suspension at 37° C. for 1 hour. Subsequently, citrate buffer (0.1 M, pH 5) containing 2 mM luciferin (Iris Biotech, Germany) was added and luminescence was measured using a microplate reader (Tecan, Switzerland).
substance,measurement,setting,value
Pam2-Glc-Suc-RGKAKCCK [Pam-1],red blood cell disruption (hemolysis),red blood cell,minimal red blood cell disruption
same,bactericidal activity,[1],no or low bactericidal activity
same,LDH activity (cytotoxicity),[2],no LDH activity
same,metabolic activity (WST-1 assay),[3],normal metabolic activity
same,CFU of S. Typhimurium in cecum content,"S. Typhimurium; 250 μg orally 6 and 22 hours post infection, vs PBS, Mann-Whitney test",significantly reduced
same,"CFU's in gut content and gut tissue, acute model (summary)","S. Typhimurium; mouse, in vivo",significant CFU reduction in the acute model and this only for gut content
same,cell envelope damage (ypuA reporter),ypuA promoter,little cell envelope damage
